Data taken from US7619008B2, “Xylitol for treatment of vaginal infections” (Kimberly-Clark Worldwide, Inc., priority 2004, dated 2009).

Key:
Gardnerella vaginalis [1] = test: Optical density after 24 hours (Example 13); type: cell-based; details: 1.0% (wt/vol) in growth medium pH 6.0, after 24 hours (FIG. 12)
Description: A growth medium for Gardnerella vaginalis was prepared according to the manufacturer's instructions, and the pH of this medium was adjusted to pH 6.0 using 1N HCl. D-ribose (99%, Calbiochem), D-arabinose (98%, Alfa Aesar), D-xylose (Aldrich), D-lyxose (99%, Avovado), D-arabitol (97%, Alfa Aesar), adonitol (99%, Alfa Aesar), xylitol (99%, Alfa Aesar), xylitol (98%, Danisco), and xylitol (98%, Aldrich) were then dissolved into the growth medium at a concentration of 1.0% (wt/vol). 0.9 milliliters of the culture medium was also added into a different culture tube as a control. Thereafter, 0.1 milliliter of Garnerella vaginalis culture suspension (concentration of 1×10^6/milliliter) was added to each of the culture tubes, and then incubated overnight at 37° C., and the optical density was then measured after 24 hours at a wavelength of 595 nanometers. This was accomplished by pipetting 100 microliters of the control or sample solutions into 96-well microplates, and then using a ThermoMax Microplate Reader from Molecular Devices of Sunnyvale, Calif. to obtain the optical density readings. The results are depicted in FIG. 12.

Gardnerella vaginalis [2] = test: Average plate count after 24 hours with gel compositions and solutions (Example 8); type: cell-based; details: 1 ml sample + 0.8 ml growth medium + 0.2 ml suspension, 24 hours at 37° C., triplicate, compositions per Table 8
Description: Samples 1-2 were prepared by dissolving the KELCOGEL® (0.07 grams) and/or xylitol (0.44 grams) into 10 milliliters of water heated to between 70° C. to 80° C. Samples 3-4 and 6 were formed by first autoclaving a gallic acid stock solution (0.75 grams of gallic acid/20 mL water), autoclaving, and then adding 200 microliters of sterile gallic acid (0.0075 grams) to each sterile solution. Sample 5 was formed by dissolving 0.44 grams of xylitol in deionized water, followed by autoclaving. Sample 7 was formed by dissolving 0.44 grams of xylitol in sterilized growth medium for Gardnerella vaginalis and then filtering. The amount of xylitol was selected to yield isotonic solutions. After vortexing the solutions to help dissolve the solids, they were allowed to cool to room temperature.
Upon formation, 1 milliliter of each control or sample solution was then added into a culture tube, followed by the addition of 0.8 milliliters of growth medium for Gardnerella vaginalis. To this mixture was added 0.2 milliliters of a Gardnerella vaginalis suspension (at a concentration of around 10^6 cfu/ml; diluted from 10^8 cfu/ml stock). The tubes were incubated in culture tubes at 37° C. After 24 and 48 hours, the optical density was measured for each sample at wavelengths of 450 and 595 nanometers. The 24-hr solution samples were then diluted at 0.001× and 0.0001×. 3 milliliters of growth medium were then added into the 24-hour composition samples, followed by 1 hour of shaking at 30° C. Solution was then taken from well-shaken test tubes and diluted at 0.001× and 0.0001×. “WASP” (Whitely Automatic Spiral Plate) spiral plating equipment from Don Whitely Scientific Limited was used to plate 100 microliters of the above solutions onto agar plates. The plates were incubated overnight at 35° C. The number of colonies on each plate was counted using ProtoCol® software from Synbiosis of Frederick, Md. All samples were plated in triplicate.

Gardnerella vaginalis [3] = test: Zone of inhibition on agar plates (Examples 1 and 4); type: cell-based; details: 10%, tested as in Example 1
Description: Gardnerella vaginalis was obtained from the American Type Culture Collection (ATCC #14018). The culture medium was Casman's medium base (BD 229010) with 5% rabbit blood (ATCC medium 70).
A microorganism culture of 10^5cfu (colony forming units)/ml in a 1× phosphate buffered saline (PBS) solution (diluted from 10× PBS LIQUID CONCENTRATE from VWR Cat. No. EM-6507] was used. One milliliter of the solution was plated on proper agar plates, depending on which microorganism was being tested. The agar plates were incubated at 35° C. for 4 hours. Three 4-millimeter diameter wells were then punched in each agar plate. […] No. 28390, Pierce Biotechnology, Inc., Rockford, Ill.) was added to one well of each plate. Into each of the other two wells were added MES buffer and 1% benzyl quats (diluted from BARDAC® 205M, from Lonza Inc., Fair Lawn, N.J.) as negative and positive controls, respectively. The plates were incubated overnight at 35° C.
The following day, the “zone of inhibition” for each sample was then measured for Gardnerella vaginalis and Lactobacillus acidophilus activity. The “zone of inhibition” is a circular zone formed around the agar plate in which the growth of the microorganism is inhibited. Absent treatment with an effective antimicrobial agent, the bacterial cells would normally produce an opaque lawn of growth. However, when growth is inhibited, a clear zone is observed. […]

[4] = tested on: Lactobacillus acidophilus; test: as above; type: cell-based; details: 10%, tested as in Example 1
Description: Lactobacillus acidophilus was obtained from the American Type Culture Collection (ATCC #4356). The culture medium was Lactobacilli MRS broth (ATCC medium 416).
A microorganism culture of 10^5cfu (colony forming units)/ml in a 1× phosphate buffered saline (PBS) solution (diluted from 10× PBS LIQUID CONCENTRATE from VWR Cat. No. EM-6507] was used. One milliliter of the solution was plated on proper agar plates, depending on which microorganism was being tested. The agar plates were incubated at 35° C. for 4 hours. Three 4-millimeter diameter wells were then punched in each agar plate. A test sample of 100 microliters of 5% xylitol in sterilized 2-N-morpholino ethane sulfonic buffer (0.1 M 2-[morpholino]-ethanesulfonic acid, 0.9% NaCl, pH 4.7, prepared from BupH™ MES Buffer Saline Pack from Cat. No. 28390, Pierce Biotechnology, Inc., Rockford, Ill.) was added to one well of each plate. Into each of the other two wells were added MES buffer and 1% benzyl quats (diluted from BARDAC® 205M, from Lonza Inc., Fair Lawn, N.J.) as negative and positive controls, respectively. The plates were incubated overnight at 35° C.
The following day, the “zone of inhibition” for each sample was then measured for Gardnerella vaginalis and Lactobacillus acidophilus activity. The “zone of inhibition” is a circular zone formed around the agar plate in which the growth of the microorganism is inhibited. […]

Gardnerella vaginalis [5] = test: Optical density of culture tubes (Example 2); type: cell-based; details: 2, 4, 6 and 24 hours at 37° C., n=4
Description: (§1) Test compounds were dissolved in culture media to form a suspension. Control or xylitol solutions (0.9 milliliters) were filtered and added into culture tubes, and to this was added 0.1 milliliter of either the Gardnerella vaginalis or Lactobacillus acidophilus suspension at a concentration of around 10^6 cfu/milliliter. The culture tubes were then incubated overnight at 37° C., whereafter the optical density was measured at 2, 4, 6 and 24 hours by pipetting 100 microliters of the control or sample solutions into 96-well microplates, and then using a ThermoMax Microplate Reader (Molecular Devices of Sunnyvale, Calif.) to obtain the optical density readings at 590 or 600 nm wavelengths. […] The inhibition effect remained evident throughout the 24-hour experimental period.

[6] = tested on: Lactobacillus acidophilus; test: Optical density of culture tubes (Example 2); type: cell-based; details: 2, 4, 6 and 24 hours at 37° C., n=4
Description: as §1

Gardnerella vaginalis [7] = test: Plate count after 6 hours treatment (Example 3); type: cell-based; details: for Plate Count, G. Vaginalis: 6 hours at 37° C., n = 4
Description: (§2) Test compounds were dissolved in culture media to form a suspension. Control or xylitol solutions (0.9 milliliters) were filtered and added into culture tubes. To these solutions, 0.1 milliliter of the Gardnerella vaginalis or Lactobacillus acidophilus suspension was then added at a concentration of around 10^6 cfu/milliliter. The culture tubes were incubated at 37° C. for 6 hours. The samples in the culture tubes were then diluted at 1, 10 and 100 times, and 100 microliters of each dilution was plated onto agar plates with WASP (Whitely Automatic Spiral Plate) spiral plating equipment from Don Whitely Scientific Limited, USA. The plates were incubated overnight at 35° C., and the numbers of colonies were counted on each plate by either ProtoCol® from Synbiosis, Frederick, Md., USA Whitely Scientific Limited, USA or by hand count. The results are shown below in Tables 2-3 and in FIG. 2,

[8] = tested on: Lactobacillus acidophilus; test: Plate count after 6 hours treatment (Example 3); type: cell-based; details: for Plate Count, L. acidophilus: 6 hours at 37° C., n = 4
Description: as §2

[9] = pH and gelation properties of acid-modified KELCOGEL/xylitol solutions (Example 5); type: physicochemical; details: 4.4% (wt/vol) xylitol in 0.7% KELCOGEL solutions
Description: Solutions were formed from xylitol and a gellan gum obtained from CP Kelco U.S., Inc. of Chicago, Ill. under the name KELCOGEL®. The solutions contained 0.7% (wt/vol) of the KELCOGEL® gum and 4.4% (wt/vol) xylitol, and were formed by dissolving 0.07 grams of the polymer powder and 0.44 grams of xylitol into 10 milliliters of water at a temperature between 70° C. to 80° C. After vortexing the solutions to help dissolve the solids, they were allowed to cool to room temperature. After cooling, the pH of the solutions was adjusted using varying amounts of either acetic acid or lactic acid.

Trichomonas vaginalis = test: Viable cell count under microscope (Example 10); type: cell-based; details: for Trichomonas vaginalis cell count in comparison to the control group: xylitol 0.5%, 3.0%, 5.0%
Description: Trichomonas vaginalis was obtained from the American Type Culture Collection (ATCC #30001). The culture medium was LYI-S-2 medium (ATCC medium 2154). A sterile LYI-S-2 medium was prepared according to the manufacturer's instructions, and the pH of this medium was adjusted to pH 6.0 using 1 N HCl. Xylitol was then dissolved into the LYI-S-2 medium at concentrations of 0.5%, 3.0%, and 5.0% (wtvol). 0.9 milliliters of xylitol and culture medium (as control) were also added into different culture tubes. Thereafter, 0.1 milliliter of Trichomonas vaginalis culture suspension (concentration of 1×10^6/milliliter) was added to each of the culture tubes, and then incubated at 35° C. on a 15 degree horizontal slant. The viable Trichomonas vaginalis cells in each tube were counted under a microscope after 24 and 48 hours. The above procedure was repeated four times for each concentration of xylitol and the control.

Candida albicans = test: Viable cell count after 24 hours (Example 12); type: cell-based; details: xylitol 1%, 2%, 3%, 4%, 5.0% (wt/vol) in YM medium pH 6.0, after 24 hours (FIG. 11)
Description: A YM culture medium was prepared according to the manufacturer's instructions, and the pH of this medium was adjusted to pH 6.0 using 1N HCl. Xylitol was then dissolved into the YM medium at concentrations of 1%, 2%, 3%, 4%, and 5.0% (wt/vol). 0.9 milliliters of the culture medium were also added into a different culture tube as a control. Thereafter, 0.1 milliliter of Candida albicans culture suspension (concentration of 1×10^6/milliliter) was added to each of the culture tubes, and then incubated at 37° C. The viable Candida albicans cells in each tube were counted under a microscope after 24 hours. The above procedure was repeated four times for each concentration and the control.

O=C[C@H](O)[C@H](O)[C@H](O)CO [D-ribose]
Gardnerella vaginalis cell count in comparison to the control group (optical density 595 nanometers) (Gardnerella vaginalis [1]): significantly reduced

O=C(O)c1cc(O)c(O)c(O)c1 [Gallic acid, trihydroxybenzoic acid]
Average Plate Count, Gardnerella vaginalis (Gardnerella vaginalis [2]): 3.43 × 10^4

OC[C@@H](O)[C@H](O)[C@@H](O)CO [Xylitol in growth media, xylitol]
Average Plate Count, Gardnerella vaginalis (Gardnerella vaginalis [2]): 2.40 × 10^4

O=C[C@H](O)[C@@H](O)[C@H](O)[C@H](O)CO [glucose]
zone of inhibition, Gardnerella vaginalis (Gardnerella vaginalis [3]): 0 mm | zone of inhibition, Lactobacillus acidophilus [4]: 0 mm

OC[C@@H](O)[C@@H](O)[C@H](O)[C@@H](O)CO [sorbitol]
zone of inhibition, Gardnerella vaginalis (Gardnerella vaginalis [3]): 0 mm | zone of inhibition, Lactobacillus acidophilus [4]: 0 mm

OC[C@@H](O)[C@H](O)[C@@H](O)CO [xylitol, D-xylitol]
inhibition of growth of Gardnerella vaginalis (optical density, FIG. 3) (Gardnerella vaginalis [5]): significant inhibition | inhibition of growth of Lactobacillus acidophilus (optical density, FIG. 4) [6]: did not exhibit any significant inhibition | Plate Count, G. Vaginalis (Gardnerella vaginalis [7]; 1% xylitol): *1.24E+05 | Plate Count, G. Vaginalis (Gardnerella vaginalis [7]; 2% xylitol): *1.64E+03 | Plate Count, G. Vaginalis (Gardnerella vaginalis [7]; 3% xylitol): *4.63E+02 | Plate Count, G. Vaginalis (Gardnerella vaginalis [7]; 4% xylitol): *1.03E+02 | Plate Count, G. Vaginalis (Gardnerella vaginalis [7]; 5% xylitol): *1.98E+01 | inhibition of Gardnerella vaginalis growth compared to the control group (Gardnerella vaginalis [7]; all five concentrations (1-5% xylitol), 6 hours): significant inhibition | inhibition of the growth of Lactobacillus acidophilus ([8]; 1% and 5% xylitol, 6 hours): did not exhibit any significant inhibition | Plate Count, L. acidophilus ([8]; 1% xylitol): 3.77 ± 0.49 E+05 | Plate Count, L. acidophilus ([8]; 5% xylitol): 3.97 ± 0.36 E+05 | effect on gelation ability of the polymer [9]: did not appear to negatively impact | Average Plate Count, Gardnerella vaginalis (Gardnerella vaginalis [2]): significant inhibition | Average Plate Count, Gardnerella vaginalis (Gardnerella vaginalis [2]; listed as Xylitol): 1.56 × 10^4 | live Trichomonas vaginalis cells (Trichomonas vaginalis; 3% xylitol, after 48 hours): No live | live Trichomonas vaginalis cells (Trichomonas vaginalis; 5% xylitol, after 48 hours): No live | Trichomonas vaginalis cell count in comparison to the control group (Trichomonas vaginalis; after 24 hours, pH 6.0, 35° C. (FIG. 8)): significantly reduced | Trichomonas vaginalis cell count in comparison to the control group (Trichomonas vaginalis; after 48 hours, pH 6.0, 35° C. (FIG. 9)): even more significant inhibitory effect | Candida albicans cell count in comparison to the control group (Candida albicans): significantly reduced | Gardnerella vaginalis cell count in comparison to the control group (optical density 595 nanometers) (Gardnerella vaginalis [1]): significantly reduced
